The test system of one data set is male Lewis rats. Briefly: Carrageenan Pleurisy Assay. As to conditions: carrageenan 0.075 mg/rat, harvested four hours after carrageenan; for % Inhibition Cells: inflammatory cells (neutrophils) in pleural exudate vs vehicle control; for % Inhibition Exudate: pleural edema (exudate) vs vehicle control. It counts as in vivo. As to the method: 2) Carrageenan Pleurisy Assay
The antiinflammatory activity of compounds of the invention was determined by the procedure of Vinegar, R, et al., Proc. Soc. Exp. Biol. Med., 1981, 168, 24-32, using male Lewis rats of 150±20 grams. The carrageenan dose was 0.075 mg/rat. Pleural exudate was harvested four hours after injection of carrageenan. Acute antiinflammatory activity was determined by inhibition of pleural edema and inflammatory cells (neutrophils) from a negative (vehicle) control group.

In data set [1] the test system is cytokine-stimulated human umbilical vein endothelial cells. Briefly: Cell Adhesion Assay: adherence of fluorescently-labelled leukocytes to endothelial cell monolayers. It counts as cell-based. Particulars: inhibition of cytokine-stimulated adhesion minus basal adhesion; calcein-AM labelled leukocytes on HUVEC monolayers. The gist of the method: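 HUVEC monolayers were stimulated with cytokine, and adhesion of calcein-AM-labelled leukocytes was quantified by fluorescence. Inhibition was calculated on cytokine-stimulated adhesion after subtracting basal adhesion of unstimulated cells.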

Broadly, the melting point is the temperature, or range, at which the solid turns liquid. The IC50 is the concentration needed to halve the response being measured.

For `O=C(O)/C=C/c1ccc(-c2nc3c(=O)n(CC4CCC4)c(=O)n(CC4CCC4)c3[nH]2)cc1` (hydrate or solvate) [Example 27, (E)-4-(1,3-bis(cyclobutylmethyl)-1,2,3,6-tetrahydro-2,6-dioxo-9H-purin-8-yl)cinnamic Acid], the melting point was above 300 °C.
`O=C(O)/C=C/c1ccc(-c2nc3c(=O)n(Cc4cccnc4)c(=O)n(Cc4cccnc4)c3[nH]2)cc1` (hydrate or solvate) [Example 30, (E)-4-(1,3-Bis(3-pyridinylmethyl)-1,2,3,6-tetrahydro-2,6-dioxo-9H-purin-8-yl)cinnamic Acid] registered a melting point above 300 °C.
Same read-out and setting: under `O=C(O)/C=C/c1cccc(-c2nc3c(=O)n(CC4CCCCC4)c(=O)n(CC4CCCCC4)c3[nH]2)c1` (hydrate or solvate) [Example 31, (E)-3-[1,3-Bis(cyclohexylmethyl)-1,2,3,6-tetrahydro-2,6-dioxo-9H-purin-8-yl]cinnamic Acid] stands above 350 °C; under `O=C(O)/C=C/c1ccc(-c2nc3c(=O)n(Cc4ccccc4)c(=O)n(Cc4ccccc4)c3[nH]2)cc1` [Example 2, (E)-4-(1,3-bis(benzyl)-1,2,3,6-tetrahydro-2,6-dioxo-9H-purin-8-yl)cinnamic Acid], above 300 °C; under `O=C(O)/C=C/c1ccc(-c2nc3c(=O)n(CC4CCCC4)c(=O)n(CC4CCCC4)c3[nH]2)cc1` [Example 3, (E)-4-(1,3-bis(cyclopentylmethyl)-1,2,3,6-tetrahydro-2,6-dioxo-9H-purin-8-yl)cinnamic Acid], above 300 °C.
In turn, `CCCn1c(=O)c2nc(-c3ccc(/C=C/C(=O)O)cc3)[nH]c2n(CCC)c1=O` [Example 4, (E)-4-(1,3-bis(propyl)-1,2,3,6-tetrahydro-2,6-dioxo-9H-purin-8-yl)cinnamic Acid] returned a melting point above 300 °C.
On to `O=C(O)/C=C/c1ccc(-c2nc3c(=O)n(CC4CC4)c(=O)n(CC4CC4)c3[nH]2)cc1` [Example 5, (E)-4-(1,3-bis(cyclopropylmethyl)-1,2,3,6-tetrahydro-2,6-dioxo-9H-purin-8-yl)cinnamic Acid], for which the melting point was above 250 °C.
Still for that read-out and setting: in the case of `O=C(O)/C=C/c1ccc(-c2nc3c(=O)n(CCC4CCCCC4)c(=O)n(CCC4CCCCC4)c3[nH]2)cc1` [Example 8, (E)-4-(1,3-bis(2-cyclohexylethyl)-1,2,3,6-tetrahydro-2,6-dioxo-9H-purin-8-yl)cinnamic Acid] it was above 250 °C; in that of `O=C(O)/C=C/c1ccc(-c2nc3c(=O)n(-c4ccccc4)c(=O)n(-c4ccccc4)c3[nH]2)cc1` [Example 9, (E)-4-(1,3-bis(phenyl)-1,2,3,6-tetrahydro-2,6-dioxo-9H-purin-8-yl)cinnamic Acid], above 375 °C; in that of `CC(C)Cn1c(=O)c2nc(-c3ccc(/C=C/C(=O)O)cc3)[nH]c2n(CC(C)C)c1=O` [Example 10, (E)-4-(1,3-bis(2-methylpropyl)-1,2,3,6-tetrahydro-2,6-dioxo-9H-purin-8-yl)cinnamic Acid], above 300 °C.
Still for that read-out and setting: in the case of `O=C(O)/C=C/c1ccc(-c2nc3c(=O)n(CC4CC5CCC4C5)c(=O)n(CC4CC5CCC4C5)c3[nH]2)cc1` (stereo not drawn) [Example 12, (E)-4-(1,3-bis(bicyclo(2.2.1)hept-2-ylmethyl)-1,2,3,6-tetrahydro-2,6-dioxo-9H-purin-8-yl)cinnamic Acid] it was above 250 °C; in that of `O=C(O)/C=C/c1ccc(-c2nc3c(=O)n(Cc4ccccc4)c(=S)n(Cc4ccccc4)c3[nH]2)cc1` [Example 17, (E)-4-(1,3-bis(benzyl)-1,2,3,6-tetrahydro-2-thioxo-6-oxo-9H-purin-8-yl)cinnamic Acid], above 350 °C.
The same measure, in the same setting: under `O=C(O)/C=C/c1ccc(-c2nc3c(=O)n(Cc4cccc(F)c4)c(=O)n(Cc4cccc(F)c4)c3[nH]2)cc1` [Example 20, (E)-4-(1,3-bis(3-fluorobenzyl)-1,2,3,6-tetrahydro-2,6-dioxo-9H-purin-8-yl)cinnamic Acid] stands above 300 °C; under `O=C(O)/C=C/c1ccc(-c2nc3c(=O)n(Cc4ccccc4F)c(=O)n(Cc4ccccc4F)c3[nH]2)cc1` [Example 21, (E)-4-(1,3-bis(2-fluorobenzyl)-1,2,3,6-tetrahydro-2,6-dioxo-9H-purin-8-yl)cinnamic Acid], above 350 °C; under `O=C(O)/C=C/c1ccc(-c2nc3c(=O)n(CCc4ccccc4)c(=O)n(CCc4ccccc4)c3[nH]2)cc1` [Example 22, (E)-4-(1,3-bis(2-phenylethyl)-1,2,3,6-tetrahydro-2,6-dioxo-9H-purin-8-yl)cinnamic Acid], above 350 °C.
For the molecule `COCCOCCOCCOCCOCCOCCOCCOCCOCCOC(=O)/C=C/c1ccc(-c2nc3c(=O)n(Cc4ccccc4)c(=O)n(Cc4ccccc4)c3[nH]2)cc1` [Example 34], in the data set on male Lewis rats, the “% Inhibition Cells” value was determined as 20% and the “% Inhibition Exudate” value was found to be 59%. In addition, the IC50 in data set [1] is below 0.1 nM.
As to `COCCOCCOCCOCCOCCOCCOCCOCCOCCOC(=O)/C=C/c1ccc(-c2nc3c(=O)n(CC4CCCC4)c(=O)n(CC4CCCC4)c3[nH]2)cc1` [Example 36, (E)-4-(1,3-bis(cyclopentylmethyl)-1,2,3,6-tetrahydro-2,6-dioxo-9H-purin-8-yl)cinnamic Acid Nonaethylene Glycol Methyl Ether Ester], in the data set on male Lewis rats, the “% Inhibition Cells” value came to 47% and the “% Inhibition Exudate” value is 38%. In addition, the IC50 in data set [1] is 11 ± 8 nM.
In the same order, the values of `CCCn1c(=O)c2nc(-c3ccc(/C=C/C(=O)OCCOCCOCCOCCOCCOCCOCCOCCOCCOC)cc3)[nH]c2n(CC2CCCCC2)c1=O` [Example 44, (E)-4-((1-propyl-3-cyclohexylmethyl)-1,2,3,6-tetrahydro-2,6-dioxo-9H-purin-8-yl)cinnamic Acid Nonaethylene Glycol Methyl Ether Ester] are 44%, 24% and 20 ± 10 nM.
In the same order, the values of `CCCn1c(=O)n(CC2CCCCC2)c(=O)c2nc(-c3ccc(/C=C/C(=O)OCCOCCOCCOCCOCCOCCOCCOCCOCCOC)cc3)[nH]c21` [Example 49, (E)-4-((1-cyclohexylmethyl-3-propyl)-1,2,3,6-tetrahydro-2,6-dioxo-9H-purin-8-yl)cinnamic Acid Nonaethylene Glycol Methyl Ether Ester] are 28%, 53% and 13 ± 9 nM.
The corresponding values for `COCCOCCOCCOCCOCCOCCOCCOCCOCCN(C)C(=O)/C=C/c1ccc(-c2nc3c(=O)n(CC4CCCCC4)c(=O)n(CC4CCCCC4)c3[nH]2)cc1` [Example 68, (E)-4-(1,3-Bis(cyclohexylmethyl)-1,2,3,6-tetrahydro-2,6-dioxo-9H-purin-8-yl) cinnamic Acid N-methyl Nonaethylene Glycol Methyl Ether Amide] are 92%, 80% and 72 ± 19 nM.
On to `CCCn1c(=O)c2nc(-c3ccc(/C=C/C(=O)NCCOCCOCCOCCOCCOCCOCCOCCOCCOC)cc3)[nH]c2n(CC2CCCCC2)c1=O` [Example 73, (E)-4-((1-propyl-3-cyclohexylmethyl)-1,2,3,6-tetrahydro-2,6-dioxo-9H-purin-8-yl)cinnamic Acid Nonaethylene Glycol Methyl Ether Amide], for which, in the data set on male Lewis rats, the “% Inhibition Cells” value is recorded as 0% and the “% Inhibition Exudate” value came to 0%. The IC50 in data set [1] was above 1000 nM.
Take `CCCn1c(=O)n(CC2CCCCC2)c(=O)c2nc(-c3ccc(/C=C/C(=O)NCCOCCOCCOCCOCCOCCOCCOCCOCCOC)cc3)[nH]c21` [Example 74, (E)-4-((1-cyclohexylmethyl-3-propyl)-1,2,3,6-tetrahydro-2,6-dioxo-9H-purin-8-yl)cinnamic Acid Nonaethylene Glycol Methyl Ether Amide]: in the data set on male Lewis rats, the “% Inhibition Cells” value amounted to 85% and the “% Inhibition Exudate” value was determined as 70%. In addition, in data set [1], the IC50 was 360 ± 160 nM.
In the same order, the values of `COCCOCCOCCOCCOCCOCCOCCOCCOCCOC(=O)/C=C/c1ccc(-c2nc3c(c(=O)n(CC4CCCCC4)c(=O)n3CC3CCCCC3)n2C)cc1` [Example 79, (E)-4-(1,3-Bis(cyclohexylmethyl)-2,3,6,7-tetrahydro-2,6-dioxo-7-methyl-1H-purin-8-yl)cinnamic Acid Nonaethylene Glycol Methyl Ether Ester] are 55%, 7% and 3 ± 1 nM.

Source of the values: patent US6608069B1, “Phenyl xanthine derivatives” (SmithKline Beecham Corporation, priority 1998, dated 2003).
